Measured values as given in patent US20250179028A1, “ACRYLAMIDE COMPOUNDS” (NRG THERAPEUTICS LTD, priority 2022, published 2025).
≈ marks a conversion by molar mass, not a printed value. Read-outs that look alike come from different tables or passages of the source. Marks after values point to notes of the source that are not given here.

How the values were obtained:
[1] = Hepatocyte clearance assay, human; format: in vitro ADME; settings: cryopreserved primary human hepatocytes, average value from two experiments, read-out: Human heps Clint
Summary of the method: (§1)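 Cryopreserved rat or human hepatocytes, 0.5×10^6 viable cells/mL in L-15 medium, incubated with compound at 37 °C; samples to 120 min, duplicate. Parent loss by LC/MS/MS; t½ = 0.693/k from ln-linear regression, converted to CLint in μL/min/1×10^6 cells.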

[2] = PBS and FaSSIF solubility; format: physicochemical; settings: kinetic from dmso stock
Summary of the method: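 Solubility was measured from 10 mM DMSO stocks diluted into FaSSIF or PBS pH 7.4, in duplicate, then shaken at 1100 rpm for 2 hr at 25 °C. Filtrates were quantified by LC-MS/MS against an internal standard and a known-concentration standard.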

[3] = Hepatocyte clearance assay, rat; format: in vitro ADME; settings: cryopreserved primary rat hepatocytes, average value from two experiments, read-out: Rat heps Clint
Summary of the method: as §1

[4] = test system: mPTP; experiment: mPTP activity (Ca2+ retention) assay in isolated rat liver mitochondria; format: biochemical; settings: isolated rat liver mitochondria
Summary of the method: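 Freshly isolated female Sprague Dawley rat liver mitochondria were energised with succinate and rotenone in pH 7.4 buffer with Fluo5N, then pre-incubated 10 min at RT with compound (30 μM to 1 nM final) before a 75 μM CaCl2 bolus. The IC50 used 10-min fluorescence, normalised to DMSO and 5 μM cyclosporin A.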

[5] = aqueous buffer, PBS pH 7.4, 2 hr at 25° C., read-out: Solubility PBS (pH 7.4)
[6] = average value from multiple experiments (n ≥ 2)
[7] = fasted state simulated intestinal fluid (FaSSIF), fassif, Fasted state simulated intestinal fluid, 2 hr at 25° C., read-out: Solubility FaSSIF

hepatocyte CLint at 1 µM [1]	solubility at 2 h [2, 5]	hepatocyte CLint at 1 µM [3]	mPTP Rat liver pIC50 [4, 6]	solubility at 2 h [2, 7]	mPTP Rat liver pIC50 ([4]; average value from a larger number of experiments)	SMILES
16.2 µL/min/1e6 cells	0.4 µM (≈ 0.136 µg/mL)	26.1 µL/min/1e6 cells	6.6	–	–	CCn1c(=O)[nH]c2cc(/C=C/C(=O)Nc3cccc(F)c3C)ccc21 [Example 22, (E)-3-(1-ethyl-2-oxo-2,3-dihydro-1H-benzo[d]imidazol-5-yl)-N-(3-fluoro-2-methylphenyl)acrylamide]
13 µL/min/1e6 cells	0.9 µM (≈ 0.266 µg/mL)	89 µL/min/1e6 cells	8.0	4 µM (≈ 1.18 µg/mL)	7.8***	Cc1c(F)cccc1NC(=O)/C=C/c1ccc2cn[nH]c2c1 [Comparative Example 1, (E)-N-(2-methyl-3-fluorophenyl)-3-(1H-indazol-6-yl)acrylamide, reference compound]
17.4 µL/min/1e6 cells	6.13 µM (≈ 2.15 µg/mL)	35.7 µL/min/1e6 cells	6.6	–	–	Cc1c(F)cccc1NC(=O)/C=C/c1ccc2c(c1)[nH]c(=O)n2C1CC1 [Example 23, (E)-3-(1-cyclopropyl-2-oxo-2,3-dihydro-1H-benzo[d]imidazol-5-yl)-N-(3-fluoro-2-methylphenyl)acrylamide]
4.78 µL/min/1e6 cells	0.5 µM (≈ 0.164 µg/mL)	–	5.9	–	–	Cc1c(F)cccc1NC(=O)/C(F)=C/c1ccc2c(c1)NC(=O)C2 [Example 47, (Z)-2-fluoro-N-(3-fluoro-2-methylphenyl)-3-(2-oxoindolin-6-yl)acrylamide]
< 3 µL/min/1e6 cells	3.71 µM (≈ 1.16 µg/mL)	53.3 µL/min/1e6 cells	6.8	16 µM (≈ 5 µg/mL)	–	Cc1c(F)cccc1NC(=O)/C=C/c1ccc2oc(=O)[nH]c2c1 [Example 6, (E)-N-(3-fluoro-2-methylphenyl)-3-(2-oxo-2,3-dihydrobenzo[d]oxazol-5-yl)acrylamide]
3.3 µL/min/1e6 cells	4.7 µM (≈ 1.46 µg/mL)	21.1 µL/min/1e6 cells	6.7	74 µM (≈ 23 µg/mL)	–	Cc1c(F)cccc1NC(=O)/C=C/c1ccc2c(c1)NC(=O)C2 [Example 10, (E)-N-(3-fluoro-2-methylphenyl)-3-(2-oxoindolin-6-yl)acrylamide]
–	6.78 µM (≈ 2.23 µg/mL)	27 µL/min/1e6 cells	6.7	66 µM (≈ 21.7 µg/mL)	–	Cc1c(F)cccc1NC(=O)/C=C/c1ccc2c(c1F)NC(=O)C2 [Example 5, (E)-N-(3-fluoro-2-methylphenyl)-3-(7-fluoro-2-oxoindolin-6-yl)acrylamide]
10.8 µL/min/1e6 cells	–	39.4 µL/min/1e6 cells	7.6	22 µM (≈ 7.63 µg/mL)	–	CO[C@H]1Cc2ccccc2[C@@H]1NC(=O)/C=C/c1ccc2c(C)n[nH]c2c1 [Example 54, (E)-N-((1S,2S)-2-methoxy-2,3-dihydro-1H-inden-1-yl)-3-(3-methyl-1H-indazol-6-yl)acrylamide]
–	33.6 µM (≈ 10.9 µg/mL)	46 µL/min/1e6 cells	5.9	220 µM (≈ 71.3 µg/mL)	–	Cc1c(F)cccc1NC(=O)/C=C/c1ccc2c(c1)NC(=O)C2C (centres unmarked) [Example 8, (E)-N-(3-fluoro-2-methylphenyl)-3-(3-methyl-2-oxoindolin-6-yl)acrylamide]
21.8 µL/min/1e6 cells	3.69 µM (≈ 1.17 µg/mL)	36.3 µL/min/1e6 cells	6.9	–	–	Cc1n[nH]c2cc(/C=C/C(=O)NC3CCc4ccccc43)ccc12 (centres unmarked) [Example 25, (E)-N-(2,3-dihydro-1H-inden-1-yl)-3-(3-methyl-1H-indazol-6-yl)acrylamide]
18.1 µL/min/1e6 cells	5.73 µM (≈ 1.94 µg/mL)	12.1 µL/min/1e6 cells	7.4	135 µM (≈ 46 µg/mL)	–	Cc1ccc(F)c(C)c1NC(=O)/C=C/c1ccc2c(c1)[nH]c(=O)n2C [Example 30, (E)-N-(3-fluoro-2,6-dimethylphenyl)-3-(1-methyl-2-oxo-2,3-dihydro-1H-benzo[d]imidazol-5-yl)acrylamide]
7.63 µL/min/1e6 cells	1.4 µM (≈ 0.455 µg/mL)	27 µL/min/1e6 cells	6.8	22.5 µM (≈ 7.32 µg/mL)	–	Cc1c(F)cccc1NC(=O)/C=C/c1ccc2c(c1)[nH]c(=O)n2C [Example 7, (E)-N-(3-fluoro-2-methylphenyl)-3-(1-methyl-2-oxo-2,3-dihydro-1H-benzo[d]imidazol-5-yl)acrylamide]

SMILES	hepatocyte CLint at 1 µM [1]	solubility at 2 h [2, 5]	hepatocyte CLint at 1 µM [3]	mPTP Rat liver pIC50 [4, 6]	solubility at 2 h [2, 7]	mPTP Rat liver pIC50 ([4]; average value from a larger number of experiments)
Cc1cccc(C)c1NC(=O)/C=C/c1ccc2c(c1)NC(=O)C2 [Example 19, (E)-N-(2,6-dimethylphenyl)-3-(2-oxoindolin-6-yl)acrylamide]	4.02 µL/min/1e6 cells	134 µM (≈ 41.1 µg/mL)	9.1 µL/min/1e6 cells	6.2	196 µM (≈ 60.2 µg/mL)	–
CO[C@H]1Cc2ccccc2[C@@H]1NC(=O)/C=C/c1ccc2c(F)n[nH]c2c1 [Example 73, (E)-3-(3-fluoro-1H-indazol-6-yl)-N-((1S,2S)-2-methoxy-2,3-dihydro-1H-Inden-1-yl)acrylamide]	7.7 µL/min/1e6 cells	–	73.5 µL/min/1e6 cells	8.1	37.5 µM (≈ 13.2 µg/mL)	–
